Earlier results as cited in patent US20050025804A1, “Reduction of adverse inflammation” (priority 2003, published 2005).

Conditions: peroxynitrite decomposition catalyst

Row | Molecule | rate constant [M⁻¹ s⁻¹]
1 | CC(=O)[O-].Cc1c(-c2c3nc(c(-c4c(C)c(S(=O)(=O)[O-])c(C)c(S(=O)(=O)[O-])c4C)c4ccc([n-]4)c(-c4c(C)c(S(=O)(=O)[O-])c(C)c(S(=O)(=O)[O-])c4C)c4nc(c(-c5c(C)c(S(=O)(=O)[O-])c(C)c(S(=O)(=O)[O-])c5C)c5ccc2[n-]5)C=C4)C=C3)c(C)c(S(=O)(=O)[O-])c(C)c1S(=O)(=O)[O-].[Fe+3].[Na+].[Na+].[Na+].[Na+].[Na+].[Na+].[Na+].[Na+] [Fe(III)TMPS, acetato-5,10,15,20-tetrakis(3,5-disulfonatomesityl) porphyrin iron (III) octasodium salt] | 2.06e+06
2 | acetato (5,10,15,20-tetrakis(N-methyl-4-pyridyl)porphinato) iron (III) tetratosylate [Fe(III)TMPyP] | 2.75e+06
